In the assay the target is T1, Parathyroid hormone/parathyroid hormone-related peptide receptor (Homo sapiens, UniProt Q03431).
T1 sequence (Q03431 whole entry): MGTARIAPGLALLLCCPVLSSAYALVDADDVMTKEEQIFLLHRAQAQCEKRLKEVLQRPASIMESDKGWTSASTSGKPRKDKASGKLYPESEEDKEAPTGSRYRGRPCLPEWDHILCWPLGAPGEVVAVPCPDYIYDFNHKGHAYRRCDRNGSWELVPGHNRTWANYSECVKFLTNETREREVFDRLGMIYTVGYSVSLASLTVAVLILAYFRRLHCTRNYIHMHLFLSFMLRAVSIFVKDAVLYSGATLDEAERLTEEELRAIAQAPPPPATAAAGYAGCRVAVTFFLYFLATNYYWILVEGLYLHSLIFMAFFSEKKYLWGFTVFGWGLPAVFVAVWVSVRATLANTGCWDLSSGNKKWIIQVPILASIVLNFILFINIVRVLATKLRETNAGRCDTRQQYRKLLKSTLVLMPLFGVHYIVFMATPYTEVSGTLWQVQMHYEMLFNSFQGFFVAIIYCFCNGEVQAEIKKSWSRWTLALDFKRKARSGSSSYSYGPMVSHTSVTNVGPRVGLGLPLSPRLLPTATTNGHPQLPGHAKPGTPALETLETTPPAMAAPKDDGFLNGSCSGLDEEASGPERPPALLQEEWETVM
Kind of assay: Agonist activity at human PTH1 receptor expressed in human GP2.3 cells assessed as induction of cAMP after 12 to 20 mins by luciferase reporter gene assay. A general note: A reporter such as luciferase makes a cellular process visible.

On to `CC[C@H](C)[C@H](NC(=O)[C@H](CC(C)C)NC(=O)[C@H]1CNC[C@@H]1NC(=O)[C@H](Cc1c[nH]cn1)NC(=O)[C@H](CC(C)C)NC(=O)[C@H](Cc1ccccc1)NC(=O)[C@H]1CNC[C@@H]1NC(=O)[C@H](CCCNC(=N)N)NC(=O)[C@H](CCCNC(=N)N)NC(=O)[C@H](CCCNC(=N)N)NC(=O)[C@H]1CCC[C@@H]1NC(=O)[C@H](CC(=O)O)NC(=O)[C@H](CCC(N)=O)NC(=O)[C@@H](NC(=O)[C@H]1CCC[C@@H]1NC(=O)[C@H](CCCCN)NC(=O)CNC(=O)[C@H](CCCCN)NC(=O)[C@H](CC(=O)O)NC(=O)[C@H](Cc1c[nH]cn1)NC(=O)[C@H](CC(C)C)NC(=O)[C@H](CC(C)C)NC(=O)[C@H](CCC(N)=O)NC(=O)[C@H](Cc1c[nH]cn1)NC(=O)[C@H](CCC(=O)O)NC(=O)[C@H](CO)NC(=O)[C@@H](NC(=O)[C@H](C)N)C(C)C)[C@@H](C)CC)C(=O)N[C@@H](C)C(=O)N[C@H]1CCC[C@@H]1C(=O)N[C@H](C(=O)N[C@@H](Cc1c[nH]cn1)C(=O)N[C@H](C(=O)N[C@H]1CCC[C@@H]1C(N)=O)[C@@H](C)O)[C@@H](C)CC`, for which the EC50 (usually the concentration at which the effect is half-maximal) worked out at 0.65 nM.

For the origin of these results see BindingDB's records for doi:10.1021/acs.jmedchem.7b00876 (University of Wisconsin-Madison, 2017).
